Experimental data from ChEMBL document CHEMBL5352464, “Structure based design and evaluation of benzoheterocycle derivatives as potential dual HIV-1 protease and reverse transcriptase inhibitors” (Eur J Med Chem, 2023).

Experiments:
[1] = molecular target: Human immunodeficiency virus type 1 reverse transcriptase (Human immunodeficiency virus 1) (UniProt Q72547); assay: Inhibition of HIV-1 NL4-3 reverse transcriptase at 100 uM by RT-PCR analysis relative to control
[2] = molecular target: Human immunodeficiency virus type 1 protease (Human immunodeficiency virus 1, UniProt Q72874); assay: Inhibition of HIV-1 protease expressed in Escherichia coli using Arg-Glu-(EDANS)-Ser-Gln-Asn-Tyr-Pro-Ile-Val-Gln-Lys-([…])-Arg as substrate preincubated with compound for 20 to 30 mins followed by substrate addition and measured after 10 mins by FRET analysis
[3] = tested on: Human immunodeficiency virus 1; assay: microbe, parasite or virus in culture; conditions: Human immunodeficiency virus 1, NL4-3, SUP-T1, 48 h
Description: Antiviral activity against VSV-G pseudotyped HIV1 NL4-3 infected in human SUP-T1 cells assessed as inhibition of early stage viral replication incubated for 48 hrs by luciferase based analysis

[4] = tested on: Human immunodeficiency virus 1; assay: microbe, parasite or virus in culture
[5] = tested on: Human immunodeficiency virus 1; assay: Antiviral activity against wild-type HIV1 NL4-3 infected in human SUP-T1 cells assessed as inhibition of viral replication pre-infected with compound for 1 day followed by compound washout and replaced with fresh medium for 48 hrs and further infected with human TZM-bl cells by lucifrease based analysis; type: functional, organism-based; conditions: Human immunodeficiency virus 1, NL4-3, SUP-T1
[6] = molecular target: Human immunodeficiency virus type 1 reverse transcriptase (Human immunodeficiency virus 1, UniProt Q72547); assay: Inhibition of HIV-1 NL4-3 reverse transcriptase by RT-PCR analysis
[7] = tested on: Human immunodeficiency virus 1; assay: Antiviral activity against VSV-G pseudotyped HIV1 NL4-3 infected in HEK293T cells assessed as inhibition of late stage viral replication pre-infected with cells for 5 hrs followed by compound treatment for 48 hrs and further infected with human SupT1 cells for 48 hrs by luciferase based analysis; type: functional, organism-based; conditions: Human immunodeficiency virus 1, NL4-3, HEK-293T
[8] = Selectivity ratio of EC50 for antiviral activity against VSV-G pseudotyped HIV1 NL4-3 infected in human SUP-T1 cells assessed as inhibition of early stage viral replication to EC50 for antiviral activity against VSV-G pseudotyped HIV1 NL4-3 infected in HEK293T cells assessed as inhibition of late stage viral replication; type: functional, Human immunodeficiency virus 1
[9] = Selectivity ratio of EC50 for antiviral activity against DRV-resistant HIV1 mutant to EC50 for antiviral activity against wild-type HIV1 NL4-3 infected in human SUP-T1 cells assessed as inhibition of viral replication; type: functional, Human immunodeficiency virus 1

COc1ccc(S(=O)(=O)N(CC(C)C)C[C@@H](O)[C@H](Cc2ccccc2)NC(=O)c2c[nH]c3ccccc23)cc1
inhibition [1]: < 20%
IC50 [2]: 12.9 µM

COc1ccc(S(=O)(=O)N(CC(C)C)C[C@@H](O)[C@H](Cc2ccccc2)NC(=O)c2cc3cc(O)c(O)cc3o2)cc1
EC50 [3]: 9.33 µM
EC50 [4]: 16.6 µM
EC50 [5]: 4.4 µM
IC50 [6]: 2.35 µM
EC50 [7]: 4.4 µM
Ratio EC50 [8]: 2.12
IC50 [2]: 1.93 µM
Ratio EC50 [9]: 3.8

COc1ccc(S(=O)(=O)N(CC(C)C)C[C@@H](O)[C@H](Cc2ccccc2)NC(=O)c2coc3cc(O)ccc23)cc1
IC50 [6]: 60.3 µM
IC50 [2]: 1.56 µM

COc1ccc(S(=O)(=O)N(CC(C)C)C[C@@H](O)[C@H](Cc2ccccc2)NC(=O)c2cc3ccc(O)cc3[nH]2)cn1
inhibition [1]: < 20%
IC50 [2]: 0.46 µM

COc1ccc(S(=O)(=O)N(CC(C)C)C[C@@H](O)[C@H](Cc2ccccc2)NC(=O)c2cc3cc(O)c(O)cc3[nH]2)cc1
IC50 [6]: 96.5 µM
IC50 [2]: 1.07 µM

CC(C)CN(C[C@@H](O)[C@H](Cc1ccccc1)NC(=O)c1cc2cc(O)ccc2o1)S(=O)(=O)c1ccc(N)cc1
inhibition [1]: < 20%
IC50 [2]: 4.53 µM

COc1ccc(S(=O)(=O)N(CC(C)C)C[C@@H](O)[C@H](Cc2ccccc2)NC(=O)c2cc3ccc(O)cc3[nH]2)cc1
IC50 [6]: 164 µM
IC50 [2]: 0.5 µM

COc1ccc(S(=O)(=O)N(CC(C)C)C[C@@H](O)[C@H](Cc2ccccc2)NC(=O)c2cc3cc(O)c(O)cc3[nH]2)cn1
EC50 [3]: 10.5 µM
EC50 [4]: 2.19 µM
EC50 [5]: 0.17 µM
IC50 [6]: 1.52 µM
EC50 [7]: 0.17 µM
Ratio EC50 [8]: 61.59
IC50 [2]: 0.84 µM
Ratio EC50 [9]: 12.9

O=C1Nc2ccc(Cl)cc2[C@@](C#CC2CC2)(C(F)(F)F)O1 [EFAVIRENZ]
EC50 [7]: > 100 µM

COc1ccc(S(=O)(=O)N(CC(C)C)C[C@@H](O)[C@H](Cc2ccccc2)NC(=O)c2cc3ccccc3[nH]2)cc1
inhibition [1]: < 20%
IC50 [2]: 7.51 µM

COc1ccc(S(=O)(=O)N(CC(C)C)C[C@@H](O)[C@H](Cc2ccccc2)NC(=O)c2cc3cc(N)ccc3o2)cc1
inhibition [1]: < 20%
IC50 [2]: 5.3 µM

COc1ccc(S(=O)(=O)N(CC(C)C)C[C@@H](O)[C@H](Cc2ccccc2)NC(=O)c2coc3cc(O)c(O)cc23)cn1
EC50 [3]: 22.7 µM
EC50 [4]: 2.83 µM
EC50 [5]: 1.76 µM
IC50 [6]: 7.5 µM
EC50 [7]: 1.76 µM
Ratio EC50 [8]: 12.88
IC50 [2]: 1.36 µM
Ratio EC50 [9]: 1.6

COc1ccc(S(=O)(=O)N(CC(C)C)C[C@@H](O)[C@H](Cc2ccccc2)NC(=O)c2cc3ccc(O)cc3o2)cn1
IC50 [6]: 223 µM
IC50 [2]: 2.84 µM

CC(C)CN(C[C@@H](O)[C@H](Cc1ccccc1)NC(=O)c1cc2ccccc2o1)S(=O)(=O)c1ccc(N)cc1
inhibition [1]: < 20%
IC50 [2]: 16.3 µM

COc1ccc(S(=O)(=O)N(CC(C)C)C[C@@H](O)[C@H](Cc2ccccc2)NC(=O)c2cc3cc(O)c(O)cc3o2)cn1
EC50 [3]: 14.5 µM
EC50 [4]: 17 µM
EC50 [5]: 4.2 µM
IC50 [6]: 5.82 µM
EC50 [7]: 4.2 µM
Ratio EC50 [8]: 3.45
IC50 [2]: 2.31 µM
Ratio EC50 [9]: 4.1

COc1ccc(S(=O)(=O)N(CC(C)C)C[C@@H](O)[C@H](Cc2ccccc2)NC(=O)c2coc3ccc(O)cc23)cc1
IC50 [6]: 82.7 µM
IC50 [2]: 2.05 µM

COc1ccc(S(=O)(=O)N(CC(C)C)C[C@@H](O)[C@H](Cc2ccccc2)NC(=O)c2cc3cc(O)ccc3o2)cc1
inhibition [1]: < 20%
IC50 [2]: 2.38 µM

COc1ccc(S(=O)(=O)N(CC(C)C)C[C@@H](O)[C@H](Cc2ccccc2)NC(=O)c2cc3cc(O)ccc3[nH]2)cc1
inhibition [1]: < 20%
IC50 [2]: 0.58 µM

CC(C)CN(C[C@@H](O)[C@H](Cc1ccccc1)NC(=O)c1cc2ccc(O)cc2o1)S(=O)(=O)c1ccc(N)cc1
inhibition [1]: < 20%
IC50 [2]: 3.05 µM

CC(C)CN(C[C@@H](O)[C@H](Cc1ccccc1)NC(=O)c1cc2cc(O)ccc2[nH]1)S(=O)(=O)c1ccc(N)cc1
IC50 [6]: 102 µM
IC50 [2]: 0.86 µM

COc1ccc(S(=O)(=O)N(CC(C)C)C[C@@H](O)[C@H](Cc2ccccc2)NC(=O)c2cc3cc(O)ccc3o2)cn1
IC50 [6]: 118 µM
IC50 [2]: 1.98 µM

COc1ccc(S(=O)(=O)N(CC(C)C)C[C@@H](O)[C@H](Cc2ccccc2)NC(=O)c2coc3ccccc23)cc1
inhibition [1]: < 20%
IC50 [2]: 8.96 µM

CC(C)CN(C[C@@H](O)[C@H](Cc1ccccc1)NC(=O)O[C@H]1CO[C@H]2OCC[C@H]21)S(=O)(=O)c1ccc(N)cc1
EC50 [5]: 0.002 µM
EC50 [7]: 0.002 µM

COc1ccc(S(=O)(=O)N(CC(C)C)C[C@@H](O)[C@H](Cc2ccccc2)NC(=O)c2cc3cc(O)ccc3[nH]2)cn1
inhibition [1]: < 20%
IC50 [2]: 0.74 µM

COc1ccc(S(=O)(=O)N(CC(C)C)C[C@@H](O)[C@H](Cc2ccccc2)NC(=O)c2cc3ccccc3o2)cc1
IC50 [6]: 65.5 µM
IC50 [2]: 9.21 µM

COc1ccc(S(=O)(=O)N(CC(C)C)C[C@@H](O)[C@H](Cc2ccccc2)NC(=O)c2cc3ccc(N)cc3o2)cc1
inhibition [1]: < 20%
IC50 [2]: 3.73 µM

COc1ccc(S(=O)(=O)N(CC(C)C)C[C@@H](O)[C@H](Cc2ccccc2)NC(=O)c2cc3ccc(O)cc3o2)cc1
inhibition [1]: < 20%
IC50 [2]: 2 µM

CC(C)CN(C[C@@H](O)[C@H](Cc1ccccc1)NC(=O)c1cc2ccc(O)cc2[nH]1)S(=O)(=O)c1ccc(N)cc1
IC50 [6]: 178 µM
IC50 [2]: 0.55 µM
